Marks after values point to notes of the source that are not given here.
Experiments:
[1] = Phase I trial combining PLD and trabectedin: MTD, safety, drug-related adverse events; assay type: in vivo, human
Protocol: A phase I trial combining PLD and trabectedin was performed. The objective of this study was to determine the maximum tolerated dose (MTD) of trabectidin in combination with PLD 30 mg/m^2 administered every 21 clays. Additional objectives were to evaluate the safety profile of this combination of drugs and to evaluate the pharmacokinetics of trabectidin and PDL when given in combination. The maximum tolerated dose (MTD) relates to the highest dose at which less than one third of the subjects in a dose-level cohort experienced dose-limiting toxicity (DLT).
We designed a dose finding trial with a fixed PLD dose of 30 mg/m^2 administered intravenously over one hour, followed immediately by one of six trabectedin doses (0.4, 0.6, 0.75, 0.9, 1.1, and 1.3 mg/m^2) administered intravenously over 3 hours. This treatment was repeated every 21 days.
Entry-criteria included normal liver function tests, limited prior, doxorubicin-exposure (dose less than 250 mg/m^2), normal cardiac function and Eastern Cooperative Oncology Group (ECOG) Performance Status (PS) score of 0 or 1.
Worst on-treatment drug related grade 3 and 4 toxicities have been minimal, limited to neutropenia and transaminases elevation. Tables 5a and 5b show the frequently reported drug-related Grade ¾ adverse events in least 5% of subjects. The adverse events reported at any time from first treatment dose up to 30 days after the last treatment dose are included. In order to define the toxicity grade, NCI common criteria are used.
In addition, Tables 6a and 6b show the drug-related serious adverse events reported.
Out of 18 subjects that discontinued treatment only one subject terminated treatment due to drug related adverse event (Tables 7a and 7b).

[2] = Phase I dose escalation study of Doxorubicin (60 mg/m^2) in combination with ET-743; assay type: in vivo, human; details: in combination with Doxorubicin 60 mg/m^2, ET-743 over 3 hours
Protocol: The following figures indicate that the use of PLD in combination with ET-743, allows an escalated dose of ET-743 to be tolerated, in comparison to when Doxorubicin is used. A phase I dose escalation study of Doxorubicin (60 mg/m^2) in combination with ET-743, administered over 3 hours, could only support a ET-743 dose of 0.7 mg/m^2. In a Phase I dose escalation study of 30 mg/m^2 PLD in combination with ET-743 administered over 3 hours, ET-743 could be escalated to 1.1 mg/m^2.

human tumour xenografts = details: xenografts including melanoma and ovarian and breast carcinoma; cited from earlier work
[3] = system: sarcoma and breast and ovarian carcinoma; details: phase I, ET-743 alone; cited from earlier work
[4] = patients, infusion over 24-72 hr; cited from earlier work
[5] = increase in plasma liver enzymes, cholangitis; cited from earlier work
[6] = ET743 0.4 mg/m^2 + PLD 30 mg/m^2, N = 3
[7] = ET743 0.6 mg/m^2 + PLD 30 mg/m^2, N = 3
[8] = ET743 0.75 mg/m^2 + PLD 30 mg/m^2, N = 3
[9] = ET743 0.9 mg/m^2 + PLD 30 mg/m^2, N = 3
[10] = ET743 1.1 mg/m^2 + PLD 30 mg/m^2, N = 12
[11] = ET743 1.3 mg/m^2 + PLD 30 mg/m^2, N = 6
[12] = Total, all ET743 dose levels + PLD 30 mg/m^2, N = 30

In the case of COc1cc2c(cc1O)CCN[C@]21CS[C@@H]2c3c(OC(C)=O)c(C)c4c(c3[C@H](COC1=O)N1[C@@H]2[C@H]2c3c(cc(C)c(OC)c3O)C[C@@H]([C@@H]1O)N2C)OCO4 [ET743, Ecteinascidin 743], the “Drug related serious adverse events, subjects: Nausea/Vomiting” value [1, 6] is reported as 0, the “Grade 3/4 drug-related AE, subjects: Allergic Reaction” value [1, 6] is reported as 0 and the “Grade 3/4 drug-related AE, subjects: Liver and Biliary System” value [1, 6] is reported as 0. For the same molecule, the “Grade 3/4 drug-related AE, subjects: Nausea” value [1, 6] was 0, the “Grade 3/4 drug-related AE, subjects: Other” value [1, 6] was 0 and the “Grade 3/4 drug-related AE, subjects: Palmar-Plantar Erythrodysesthesia” value [1, 6] was 0. For the same molecule, the “Grade 3/4 drug-related AE, subjects: SGOT Increased” value [1, 6] was 0, the “Grade 3/4 drug-related AE, subjects: SGPT Increased” value [1, 6] was 0 and the “Total no. subjects with Grade 3/4 drug-related AE” value [1, 6] was 0. For the same molecule, the “Total no. subjects with SAE (drug related serious adverse events)” value (“Total no. subjects with SAE” below) [1, 6] was 0, the “Treatment termination, subjects: Death” value [1, 6] was 0 and the “Treatment termination, subjects: Drug-Related AE (hand-foot syndrome)” value (shortened to “Treatment termination … (hand-foot syndrome)”) [1, 6] was 0. The “Drug related serious adverse events, subjects: Nausea/Vomiting” value [1, 7] was 0, the “Grade 3/4 drug-related AE, subjects: Allergic Reaction” value [1, 7] was 0 and the “Grade 3/4 drug-related AE, subjects: Liver and Biliary System” value [1, 7] was 0. For the same molecule, the “Grade 3/4 drug-related AE, subjects: Nausea” value [1, 7] was 1, the “Grade 3/4 drug-related AE, subjects: Other” value [1, 7] was 1 and the “Grade 3/4 drug-related AE, subjects: Palmar-Plantar Erythrodysesthesia” value [1, 7] was 0. For the same molecule, the “Grade 3/4 drug-related AE, subjects: SGOT Increased” value [1, 7] was 0, the “Grade 3/4 drug-related AE, subjects: SGPT Increased” value [1, 7] was 0 and the “Total no. subjects with Grade 3/4 drug-related AE” value [1, 7] was 1. The “Total no. subjects with SAE” value [1, 7] was 0, the “Treatment termination, subjects: Death” value [1, 7] was 0 and the “Treatment termination … (hand-foot syndrome)” value [1, 7] was 0. The “Drug related serious adverse events, subjects: Nausea/Vomiting” value [1, 8] was 0, the “Grade 3/4 drug-related AE, subjects: Allergic Reaction” value [1, 8] was 0 and the “Grade 3/4 drug-related AE, subjects: Liver and Biliary System” value [1, 8] was 0. For the same molecule, the “Grade 3/4 drug-related AE, subjects: Nausea” value [1, 8] was 0, the “Grade 3/4 drug-related AE, subjects: Other” value [1, 8] was 0 and the “Grade 3/4 drug-related AE, subjects: Palmar-Plantar Erythrodysesthesia” value [1, 8] was 0. For the same molecule, the “Grade 3/4 drug-related AE, subjects: SGOT Increased” value [1, 8] was 0, the “Grade 3/4 drug-related AE, subjects: SGPT Increased” value [1, 8] was 0 and the “Total no. subjects with Grade 3/4 drug-related AE” value [1, 8] was 0. For the same molecule, the “Total no. subjects with SAE” value [1, 8] was 0, the “Treatment termination, subjects: Death” value [1, 8] was 0 and the “Treatment termination … (hand-foot syndrome)” value [1, 8] was 0. For the same molecule, the “Drug related serious adverse events, subjects: Nausea/Vomiting” value [1, 9] was 0, the “Grade 3/4 drug-related AE, subjects: Allergic Reaction” value [1, 9] was 0 and the “Grade 3/4 drug-related AE, subjects: Liver and Biliary System” value [1, 9] was 0. For the same molecule, the “Grade 3/4 drug-related AE, subjects: Nausea” value [1, 9] was 0, the “Grade 3/4 drug-related AE, subjects: Other” value [1, 9] was 0 and the “Grade 3/4 drug-related AE, subjects: Palmar-Plantar Erythrodysesthesia” value [1, 9] was 0. For the same molecule, the “Grade 3/4 drug-related AE, subjects: SGOT Increased” value [1, 9] was 0, the “Grade 3/4 drug-related AE, subjects: SGPT Increased” value [1, 9] was 0 and the “Total no. subjects with Grade 3/4 drug-related AE” value [1, 9] was 0. The “Total no. subjects with SAE” value [1, 9] was 0, the “Treatment termination, subjects: Death” value [1, 9] was 0 and the “Treatment termination … (hand-foot syndrome)” value [1, 9] was 0. The “Drug related serious adverse events, subjects: Nausea/Vomiting” value [1, 10] was 1, the “Grade 3/4 drug-related AE, subjects: Allergic Reaction” value [1, 10] was 2 and the “Grade 3/4 drug-related AE, subjects: Liver and Biliary System” value [1, 10] was 6. The “Grade 3/4 drug-related AE, subjects: Nausea” value [1, 10] was 1, the “Grade 3/4 drug-related AE, subjects: Other” value [1, 10] was 4 and the “Grade 3/4 drug-related AE, subjects: Palmar-Plantar Erythrodysesthesia” value [1, 10] was 2. For the same molecule, the “Grade 3/4 drug-related AE, subjects: SGOT Increased” value [1, 10] was 1, the “Grade 3/4 drug-related AE, subjects: SGPT Increased” value [1, 10] was 6 and the “Total no. subjects with Grade 3/4 drug-related AE” value [1, 10] was 10. The “Total no. subjects with SAE” value [1, 10] was 1, the “Treatment termination, subjects: Death” value [1, 10] was 0 and the “Treatment termination … (hand-foot syndrome)” value [1, 10] was 1. For the same molecule, the “Drug related serious adverse events, subjects: Nausea/Vomiting” value [1, 11] was 0, the “Grade 3/4 drug-related AE, subjects: Allergic Reaction” value [1, 11] was 0 and the “Grade 3/4 drug-related AE, subjects: Liver and Biliary System” value [1, 11] was 3. The “Grade 3/4 drug-related AE, subjects: Nausea” value [1, 11] was 0, the “Grade 3/4 drug-related AE, subjects: Other” value [1, 11] was 2 and the “Grade 3/4 drug-related AE, subjects: Palmar-Plantar Erythrodysesthesia” value [1, 11] was 2. The “Grade 3/4 drug-related AE, subjects: SGOT Increased” value [1, 11] was 2*, the “Grade 3/4 drug-related AE, subjects: SGPT Increased” value [1, 11] was 3* and the “Total no. subjects with Grade 3/4 drug-related AE” value [1, 11] was 6. The “Total no. subjects with SAE” value [1, 11] was 0, the “Treatment termination, subjects: Death” value [1, 11] was 1 and the “Treatment termination … (hand-foot syndrome)” value [1, 11] was 0. For the same molecule, the “Grade 3/4 drug-related AE, subjects: Allergic Reaction” value [1, 12] was 2, the “Grade 3/4 drug-related AE, subjects: Liver and Biliary System” value [1, 12] was 9 and the “Grade 3/4 drug-related AE, subjects: Nausea” value [1, 12] was 2. For the same molecule, the “Grade 3/4 drug-related AE, subjects: Other” value [1, 12] was 7, the “Grade 3/4 drug-related AE, subjects: Palmar-Plantar Erythrodysesthesia” value [1, 12] was 4 and the “Grade 3/4 drug-related AE, subjects: SGOT Increased” value [1, 12] was 3. For the same molecule, the “Grade 3/4 drug-related AE, subjects: SGPT Increased” value [1, 12] was 9, the “Total no. subjects with Grade 3/4 drug-related AE” value [1, 12] was 17 and the “Total no. subjects with SAE” value [1, 12] was 1. For the same molecule, the “Treatment termination, subjects: Death” value [1, 12] was 1, the “Treatment termination … (hand-foot syndrome)” value [1, 12] was 1 and the “Tolerability of the combination” value ([1]; both drugs at full (or near full) therapeutic doses for prolonged periods) was “well tolerated”. The “ET-743 dose reached in dose escalation” value ([1]; in combination with 30 mg/m^2 PLD, ET-743 over 3 hours) was 1.1 mg/m^2, the “maximum tolerated dose (MTD)” value ([1]; in combination with PLD 30 mg/m^2, every 21 days, ET-743 i.v. over 3 hours) was 1.1 mg/m^2 and the “recommended dose of the combination treatment” value ([1]; plus 30 mg/m^2 of PLD) was 1.1 mg/m^2. For the same molecule, the “ET-743 dose that could be supported in dose escalation” value [2] was 0.7 mg/m^2, the antineoplastic activity (human tumour xenografts) was “potent antineoplastic activity” and the clinical responses [3] was “promising responses were observed”. The side effects [4] was “myelotoxic and hepatotoxic side effects” and the acute toxicity finding [5] was “liver toxicity as an important side effect”.

Source: US20090117176A1, “Anticancer Treatments” (Pharma Mar, S.A. Sociedad Unipersonal, priority 2004, published 2009)
